Measured values: the supplement of paper PMC9337992

Experiments:
Assay in all cases: cell confluence relative to DMSO control; higher = less growth inhibition
Settings in all cases: 5 d
HCC38 = system: HCC38
Method: (§1)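 MS023 dose-response (9 concentrations, 40 nM to 10 uM) across TNBC cell lines. Cell confluence was monitored by IncuCyte live-cell imaging for 5 d and normalised to DMSO; n = 4 replicates.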

MDA-MB468 = system: MDA-MB468
Method: as §1

MDA-MB-157 = system: MDA-MB-157
Method: as §1

HCC1143 = system: HCC1143
Method: as §1

SUM159 = system: SUM159
Method: as §1

BT549 = system: BT549
Method: as §1

MDA-MB436 = system: MDA-MB436
Method: as §1

Hs578T = system: Hs578T
Method: as §1

SUM149 = system: SUM149
Method: as §1

MX1 = system: MX1
Method: as §1

HCC1395 = system: HCC1395
Method: as §1

MDAMB231 = system: MDAMB231
Method: as §1

BT20 = system: BT20
Method: as §1

HCC3153 = system: HCC3153
Method: as §1

CAL85-1 = system: CAL85-1
Method: as §1

HCC70 = system: HCC70
Method: as §1

CAL120 = system: CAL120
Method: as §1

HCC1806 = system: HCC1806
Method: as §1

CC(C)Oc1ccc(-c2c[nH]cc2CN(C)CCN)cc1 [MS023]
cell confluence [%]
Settings	log10 MS023 concentration (log10 uM): 0.09691	log10 MS023 concentration (log10 uM): 0.39794	log10 MS023 concentration (log10 uM): 0.69897	log10 MS023 concentration (log10 uM): 1	log10 MS023 concentration (log10 uM): -0.20412	log10 MS023 concentration (log10 uM): -0.50515	log10 MS023 concentration (log10 uM): -0.80618	log10 MS023 concentration (log10 uM): -1.10721	log10 MS023 concentration (log10 uM): -1.40824
BT20	102	98.2	99.8	91.7	100	102	101	93.8	96.5
BT549	91.8	85.7	61.5	53.4	99.5	97.3	103	109	98.8
CAL85-1	84.2	70.6	59.1	39.6	95.4	98.7	99.6	98.1	96
CAL120	100.06	100.1	100	99.59	100.2	99.99	100.2	100	100.1
HCC38	95.7	86.4	76.9	60.3	98.1	99.1	100	100.3	100.1
HCC70	73.3	67.8	54.4	39.5	86	80	91.3	89.3	96.6
HCC1143	84.3	52.5	26	21.1	82.8	89.9	96.6	100	98.5
HCC1395	101	92.8	70.3	53.3	102	107	107	108	108
HCC1806	94.2	97.4	84.6	66.6	100	100	100	101	103
HCC3153	95	85.4	67.3	51.9	98.1	98.44	99.3	99.5	98.93
Hs578T	99.47	97.79	89.9	79.6	99.79	99.921	99.933	99.898	99.921
MDA-MB436	70.9	33.6	24.4	22.9	78.1	82.9	97.9	96.2	100
MDA-MB468	58.7	35.8	36.3	25.3	79.5	95.1	94.8	96.2	98.5
MDA-MB-157	93.1	93.3	88.9	81.4	95.6	101	99.7	100	98.2
MDAMB231	96.77	88.2	71	61.1	99.56	99.8	99.9	99.943	99.978
MX1	93.6	83.1	48.8	33.3	95.8	100	99.8	97.8	98.4
SUM149	94.1	79.9	53.5	38.4	99.14	98.7	97.9	99.1	95.4
SUM159	93	49.6	25.1	26.3	98.2	99.11	99.03	99.4	98.1
